Molecules are shown by their SMILES.

Data set [1] is described as follows: in vitro. The following applies: human, liver microsomes.
A short description of data set [2]: in vitro. The following applies: rat, liver microsomes. Background: Liver microsomes are vesicles of endoplasmic reticulum, rich in cytochrome P450 enzymes.
Data set [3] in a line: in vitro. The following applies: mouse, liver microsomes.

With `COc1cc(N2CC=C(Oc3ccc(C4CC4)cc3)C2=O)ccc1OCCO`, the share remaining at 10 min, 3 µM in “in vitro [1]” stood at 87%; in “in vitro [2]”, 71%; in “in vitro [3]”, 74%. This compound displayed a lipophilicity (logP) in “physchem” of 3.3.

As usually defined, the fraction remaining is what is left of the initial amount, in per cent. The low end stands for more turnover, the high end for less turnover. For orientation: logP means the decadic logarithm of the partition coefficient of the neutral form, usually between octanol and water. A lower logP goes with lower lipophilicity.

The record behind these values is ChEMBL document CHEMBL5608206, “Exploring monocyclic core: Discovery of pyrrol-2-one derivatives as a new series of potent MCHR1 antagonists with in vivo efficacy” (Eur J Med Chem, 2024).
